Laboratory results as given in PMC6146777, “Biocompatible glyconanomaterials based on HPMA-copolymer for specific targeting of galectin-3” (Journal of Nanobiotechnology, 2018).

Biological target: T1, Recombinant human His6-tagged galectin-3 (Gal-3) (Homo sapiens, UniProt P17931)
T1 construct: gene LGALS3; His6-tagged Gal-3 (tag kept), expressed in E. coli Rosetta 2 (DE3) pLysS, 28,023 Da calculated, monomer in solution
Assay: competitive ELISA, Gal-3 binding to immobilized asialofetuin
Conditions: 6.5 µM Gal-3, EPBS buffer pH 7.5, 2 mM EDTA, 2 h; competitive with asialofetuin

T1 sequence (P17931 2-250): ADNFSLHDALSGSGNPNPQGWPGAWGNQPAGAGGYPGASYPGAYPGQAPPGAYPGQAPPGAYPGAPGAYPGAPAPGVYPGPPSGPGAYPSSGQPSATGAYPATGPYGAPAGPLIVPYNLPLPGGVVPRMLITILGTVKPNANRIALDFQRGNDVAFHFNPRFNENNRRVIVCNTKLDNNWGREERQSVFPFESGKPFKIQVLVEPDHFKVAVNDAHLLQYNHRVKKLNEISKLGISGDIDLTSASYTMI

Compound	IC50
CC(=O)N[C@H]1C(O)O[C@H](CO)[C@@H](O[C@@H]2O[C@H](CO)[C@H](O)[C@H](O)[C@H]2O)[C@@H]1O (some centres unmarked) [LacNAc]	53 ± 16 µM
CC(=O)N[C@H]1[C@H](O[C@H]2[C@H](O)[C@@H](NC(C)=O)C(O)O[C@@H]2CO)O[C@H](CO)[C@H](O)[C@@H]1O (stereo partly drawn) [compound 5, 2-acetamido-2-deoxy-β-D-galactopyranosyl-(1 → 4)-2-acetamido-2-deoxy-D-glucopyranose]	64 ± 20 µM
